Test results from patent US10087169B2, “Bicyclic PKM2 activators” (Agios Pharmaceuticals, Inc., priority 2010, dated 2018).

target: PKM2 (Homo sapiens, UniProt P14618); test: PKM2 Assay; format: biochemical; details: activation of PKM2; Tables 1-4
Description: • PKM2 stock enzyme solution was diluted in Reaction Buffer • 2 μL of compound was added into each well first, and then 180 μL of the Reaction Mix was added. • Reaction mixture with compound (without ADP) was incubated for 30 minutes at 4° C. • Plates were re-equilibrated to room temperature prior to adding 20 μL ADP to initiate the reaction. • Reaction progress was measured as changes in absorbance at 340 nm wavelength at room temperature (25° C.) Reaction Mix:
PKM2 (50 ng/well), ADP (0.7 mM), PEP (0.15 mM), NADH (180 μM), LDH (2 units) in Reaction Buffer

Sequence of PKM2 (P14618 whole entry): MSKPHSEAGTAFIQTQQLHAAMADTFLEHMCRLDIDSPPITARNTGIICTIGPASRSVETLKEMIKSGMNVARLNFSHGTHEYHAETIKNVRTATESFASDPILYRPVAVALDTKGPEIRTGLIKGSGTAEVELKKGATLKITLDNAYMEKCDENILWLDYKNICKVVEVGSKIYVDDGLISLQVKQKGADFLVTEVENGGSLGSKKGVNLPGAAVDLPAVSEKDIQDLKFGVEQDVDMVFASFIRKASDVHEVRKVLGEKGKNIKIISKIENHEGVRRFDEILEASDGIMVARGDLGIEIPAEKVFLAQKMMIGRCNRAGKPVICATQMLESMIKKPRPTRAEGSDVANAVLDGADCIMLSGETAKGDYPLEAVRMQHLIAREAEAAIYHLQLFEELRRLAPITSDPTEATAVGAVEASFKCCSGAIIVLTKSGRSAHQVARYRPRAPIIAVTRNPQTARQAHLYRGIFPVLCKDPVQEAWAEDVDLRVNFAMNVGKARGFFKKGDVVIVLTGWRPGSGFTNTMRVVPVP

Compared with `Cc1cc(NS(=O)(=O)c2ccc3c(c2)N(C)C(=O)OC3)ccc1F`, `Cc1cc(NS(=O)(=O)c2ccc3c(c2)COC(=O)N3C)ccc1F` is higher in AC50: < 100 nM for the first, 100 to 500 nM for the second.

First: CN1C(=O)OCc2ccc(S(=O)(=O)Nc3ccc(F)c(Cl)c3)cc21
Second: CN1C(=O)OCc2cc(S(=O)(=O)Nc3ccc(F)c(Cl)c3)ccc21
The AC50 of the first is lower: < 100 nM for the first, 100 to 500 nM for the second.

`CN1Cc2cc(S(=O)(=O)Nc3ccc(F)c(Cl)c3)ccc2OC1=O` and `Cc1cc(NS(=O)(=O)c2ccc3c(c2)CN(C)C(=O)O3)ccc1F` fall in the same range of AC50: 100 to 500 nM for the first, 100 to 500 nM for the second.

Going from `O=C1Oc2ccc(S(=O)(=O)Nc3ccc(F)c(Cl)c3)cc2CN1Cc1ccccc1` to `CN1CC(=O)Oc2ccc(S(=O)(=O)Nc3ccc(F)c(Cl)c3)cc21`, the AC50 falls from > 500 nM to < 100 nM.

First: Cc1cc(C)cc(NS(=O)(=O)c2ccc3c(c2)NC(=O)CO3)c1
Second: Cc1cc(C)cc(NS(=O)(=O)c2ccc3c(c2)N(C)C(=O)CO3)c1
The AC50 of the first is higher: > 500 nM for the first, < 100 nM for the second.

`O=C1COc2ccc(S(=O)(=O)Nc3ccc(F)cc3)cc2N1` and `COc1ccc(NS(=O)(=O)c2ccc3c(c2)NC(=O)CO3)cc1` cannot be ordered by AC50: > 500 nM for the first, > 500 nM for the second.

`O=C1COc2ccc(S(=O)(=O)Nc3ccc4c(c3)OCCO4)cc2N1` and `CN1C(=O)COc2ccc(S(=O)(=O)Nc3ccc4c(c3)OCCO4)cc21` cannot be ordered by AC50: > 500 nM for the first, > 500 nM for the second.

`CN1C(=O)COc2ccc(S(=O)(=O)Nc3ccc(F)cc3)cc21` and `COc1ccc(NS(=O)(=O)c2ccc3c(c2)N(C)C(=O)CO3)cc1` cannot be ordered by AC50: > 500 nM for the first, > 500 nM for the second.

`Cc1cc(NS(=O)(=O)c2ccc3c(c2)N(C)C(=O)CO3)ccc1F` and `CN1C(=O)COc2ccc(S(=O)(=O)Nc3ccc(F)c(Cl)c3)cc21` cannot be ordered by AC50: < 100 nM for the first, < 100 nM for the second.

`CN1C(=O)COc2ccc(S(=O)(=O)Nc3cccc(Cl)c3)cc21` and `CN1CC(=O)Oc2ccc(S(=O)(=O)Nc3cccc(Cl)c3)cc21` cannot be ordered by AC50: < 100 nM for the first, < 100 nM for the second.

`CN1C(=O)COc2ccc(S(=O)(=O)Nc3ccc4c(c3)OCO4)cc21` and `Cc1cc(NS(=O)(=O)c2ccc3c(c2)N(C)CC(=O)O3)ccc1F` cannot be ordered by AC50: < 100 nM for the first, < 100 nM for the second.
